Results reported in patent publication US20070037193A1, “Modulation of peroxisome proliferator-activated receptors” (priority 2005, published 2007).

Key:
[1] = tested on: endogenous PPAR; test: Reporter gene assay of endogenous PPAR activity in differentiating 3T3-L1 cells; assay type: cell-based; conditions: 3T3-L1 cells induced to differentiate for two days
Procedure: (§1) The effect of prostaglandin on PPAR-gamma activity in adipocytes was investigated. After treatment with a medium that induces cell differentiation, 3T3-L1 cells were treated from day 2 to 4 during adipogenesis with 14 μM 15-keto PGE2, 13,14-dihydro-15-keto PGE2, 15-keto PGF2α, 13,14-dihydro-15-keto PGF2α, or 4.5 μM of BRL49653, a PPAR-gamma agonist. See Forman et al., Cell (1995) 83:803-812. At day 6, aggregates of lipid droplets were stained with oil-red O for observation. […] After being induced to differentiate for two days, the 3T3-L1 cells were transfected with a reporter gene.

[2] = tested on: PGR3/ZADH2; test: Substrate specificity of PGR3/ZADH2; assay type: biochemical; conditions: 15-keto PGE2 replaced with the test substrate
Procedure: (§2) Enzymatic activity was determined as follows. 10 μg of the recombinant mouse or human PGR3/ZADH2 protein was incubated at 37° C. in a reaction buffer containing 0.1IM Tris-HCl (pH7.4), 0.5 mM NADPH, and 0.57 mM 15-keto PGE2. The reaction was conducted at 37° C. in the dark for 10 minutes and terminated by adding 700 μl of a buffer which contained 50 mM potassium hydrogen phthalate, pH 3.0, and 1% Tween 20. 200 μl of a color development reagent, which contained 790 μM indonitrotetrazolium chloride, 60 μM phenazene methosulfate, and 1% Tween 20, was added to oxidize any unreacted NADPH. Absorbance at 490 nm was measured by an ELISA plate reader. A standard curve was generated using reaction buffers containing serially diluted amounts of NADPH.
Substrate specificity of PGR3/ZADH2 was determined using the just-described procedure, except that 15-keto PGE2 was replaced with each of six prostaglandin substrates, each of three downstream metabolites, or leukotriene B4.

[3] = biological target: T1, PPAR-gamma (Homo sapiens, UniProt P37231); test: GAL4-PPAR ligand-binding domain luciferase reporter in 3T3-L1 cells; assay type: cell-based
T1 construct: expressed in transfected cells; host or cells: 3T3-L1 cells
T1 sequence (P37231 238-503 limits assumed): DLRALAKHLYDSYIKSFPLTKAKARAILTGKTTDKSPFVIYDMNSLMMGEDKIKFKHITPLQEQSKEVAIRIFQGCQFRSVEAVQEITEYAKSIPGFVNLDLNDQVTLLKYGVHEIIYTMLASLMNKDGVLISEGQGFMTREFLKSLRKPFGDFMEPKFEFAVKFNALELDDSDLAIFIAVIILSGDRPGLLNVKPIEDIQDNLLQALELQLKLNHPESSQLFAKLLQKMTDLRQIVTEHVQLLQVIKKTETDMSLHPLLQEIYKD
Description: A luciferase reporter gene was transfected to 3T3-L1 cells together with the ligand-binding domain of PPAR-alpha, PPAR-gamma or PPAR-delta fused to a yeast GAL4 DNA-binding domain.

[4] = biological target: T2, Mouse PGR3/ZADH2 (Mus musculus, UniProt Q8BGC4); test: PGR3/ZADH2 enzyme inhibition assay (reduction of 15-keto-PGE2, NADPH consumption); assay type: biochemical; conditions: 50 μM compound, No Inhibitor = 100
T2 construct: GST; made in house; host or cells: E. coli
T2 sequence (Q8BGC4 1-377): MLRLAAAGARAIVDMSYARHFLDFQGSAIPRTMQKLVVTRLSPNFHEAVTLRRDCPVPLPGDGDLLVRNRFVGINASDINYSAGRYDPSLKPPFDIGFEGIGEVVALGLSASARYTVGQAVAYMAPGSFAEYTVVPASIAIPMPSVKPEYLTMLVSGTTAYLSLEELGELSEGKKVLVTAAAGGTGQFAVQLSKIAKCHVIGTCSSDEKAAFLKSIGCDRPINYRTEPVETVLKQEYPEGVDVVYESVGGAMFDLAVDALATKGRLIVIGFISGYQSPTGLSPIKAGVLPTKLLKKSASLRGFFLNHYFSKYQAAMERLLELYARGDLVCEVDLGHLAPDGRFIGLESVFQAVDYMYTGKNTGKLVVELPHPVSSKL
Procedure: as §2
(§3) Compounds 1-49 were tested for their inhibitory effects on PGR3/ZADH2 activity. These compounds are either commercially available (e.g., from Sigma-Aldrich, St. Louis, Mo.) or can be prepared from methods known in the art. The inhibition assay was performed following the procedure described above. Different concentrations of PGR3/ZADH2 inhibitors were added to the reaction mixture and incubated for 2 hours at 37° C.
(§4) More specifically, 50 μM of compounds 8, 12, 13, and 27, and 25 μM of tri-fluorobenzyl-2-hydroxycinnamate (compound 22) were added to the PGR3/ZADH2 enzyme reaction system and the ability of enzyme to reduce 15-keto-PGE2 were measured.

[5] = biological target: T3, Human PGR3/ZADH2 (Homo sapiens, UniProt Q8N4Q0); test: as above; assay type: biochemical; conditions: 50 μM compound, No Inhibitor = 100
T3 construct: GST; made in house; host or cells: E. coli
T3 sequence (Q8N4Q0 1-377): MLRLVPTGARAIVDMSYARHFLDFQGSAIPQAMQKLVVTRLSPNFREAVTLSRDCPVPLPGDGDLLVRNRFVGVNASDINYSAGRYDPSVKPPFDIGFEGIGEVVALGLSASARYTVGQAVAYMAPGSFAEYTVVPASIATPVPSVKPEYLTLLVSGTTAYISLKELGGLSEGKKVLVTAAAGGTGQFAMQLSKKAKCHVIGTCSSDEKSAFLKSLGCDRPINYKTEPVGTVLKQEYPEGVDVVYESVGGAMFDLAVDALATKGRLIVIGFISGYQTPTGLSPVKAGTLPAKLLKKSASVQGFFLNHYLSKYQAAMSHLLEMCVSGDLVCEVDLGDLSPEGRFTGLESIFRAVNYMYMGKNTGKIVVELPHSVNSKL
Procedure: as §2, §3, §4

[6] = tested on: PPAR-gamma target genes; test: Protein expression of adipogenesis-specific PPAR-gamma target genes in 3T3-L1 cells; assay type: cell-based
Description: Also examined was the ability of 15-keto PGE2 to induce protein expression of adipogenesis-specific, PPAR-gamma target genes, i.e., IRS-1 and -2.

[7] = tested on: 3T3-L1 cells; test: Adipogenesis in 3T3-L1 cells, oil-red O staining of lipid droplets; assay type: cell-based; conditions: 14 μM from day 2 to 4; staining at day 6
Procedure: as §1

In the case of CCCCCC(=O)/C=C/[C@@H]1[C@@H](C/C=C\CCCC(=O)O)[C@@H](O)C[C@H]1O [15-keto PGF2α], the “endogenous PPAR activity (reporter gene)” value [1] is reported as “enhanced endogenous PPAR activity significantly”, the “specific activity as substrate of PGR3/ZADH2” value [2] is reported as “reacted specifically” and the “activation of PPAR-gamma (GAL4 fusion, luciferase reporter)” value [3] is reported as “activated PPAR-gamma”.

For CCCCC[C@H](O)/C=C/[C@@H]1[C@@H](C/C=C\CCCC(=O)O)[C@H](O)C[C@H]1O [PGF2β], the “specific activity as substrate of PGR3/ZADH2” value [2] was “no specific activity was detected”.

CCCCCC(=O)/C=C/[C@H]1[C@H](O)CC(=O)[C@@H]1CCCCCCC(=O)O [15-keto PGE1] was tested, and the “specific activity as substrate of PGR3/ZADH2” value [2] was “reacted specifically”.

COc1cc(/C=C/C(=O)c2cc(Br)ccc2O)cc(OC)c1OC [Compound 13] gave an activity at 50 µM [4] of 37.1% and an activity at 50 µM [5] of 51.1%.

With CCCCCC(=O)/C=C/[C@H]1[C@H](O)CC(=O)[C@@H]1C/C=C\CCCC(=O)O [15-keto PGE2] the “endogenous PPAR activity (reporter gene)” value [1] was “enhanced endogenous PPAR activity significantly”, the “amount of IRS-1 protein” value [6] was “did not increase the amount of IRS-1 protein” and the “PPAR-gamma1 and PPAR-gamma2 protein expression” value ([6]; added with MIX, insulin and dexamethasone) was “significantly enhanced PPAR-gammal and PPAR-gamma2 expression”. For the same molecule, the “expression of aP2” value ([6]; even in the absence of MIX) was “strongly induced expression of aP2”, the IRS-2 expression ([6]; in the presence of insulin and dexamethasone) was “enhanced the expression to a level similar to MIX” and the “adipogenesis (lipid droplets, oil-red O)” value [7] was “effectively enhanced adipogenesis at a level similar to BRL49653”. For the same molecule, the “activation of PPAR-gamma (GAL4 fusion, luciferase reporter)” value [3] was “activated PPAR-gamma”.

In the case of CCCCCC(=O)/C=C/[C@@H]1[C@@H](CCCCCCC(=O)O)[C@@H](O)C[C@H]1O [15-keto PGF1αL, 15-keto PGF1α], the “specific activity as substrate of PGR3/ZADH2” value [2] is reported as “reacted specifically”.

For CCCCCC(=O)CCC1C(=O)CC(O)C1C/C=C\CCCC(=O)O (centres unmarked) [13,14-dihydro-15-keto PGD2], the “specific activity as substrate of PGR3/ZADH2” value [2] was “no specific activity was detected”.

CCCCC/C=C\C[C@@H](O)/C=C/C=C/C=C\[C@@H](O)CCCC(=O)O [leukotriene B4] was tested, and the “specific activity as substrate of PGR3/ZADH2” value [2] was “no specific activity was detected”.

COc1cc(/C=C/C(=O)c2ccccc2O)cc(OC)c1OC [Compound 12] was tested, and the activity at 50 µM [4] was 6.4% and the activity at 50 µM [5] was 27.5%.

For CCCCC[C@H](O)/C=C/[C@@H]1[C@@H](CC(=O)CCCCC(=O)O)[C@@H](O)C[C@H]1O [6-keto PGF1α], the “specific activity as substrate of PGR3/ZADH2” value [2] was “no specific activity was detected”.

Work on O=c1c(O)c(-c2ccc(O)c(O)c2)oc2ccccc12 [Compound 27] yielded an activity at 50 µM [4] of 87.4% and an activity at 50 µM [5] of 91.1%.

O=c1c(O)c(-c2ccccc2)oc2cc(O)cc(O)c12 [Compound 8] gave an activity at 50 µM [4] of 11.4% and an activity at 50 µM [5] of 25.6%.

For CCCCCC(=O)CC[C@@H]1[C@@H](C/C=C\CCCC(=O)O)[C@@H](O)C[C@H]1O [13,14-dihydro-15-keto PGF2α], the “endogenous PPAR activity (reporter gene)” value [1] was “failed to increase PPAR activity” and the “specific activity as substrate of PGR3/ZADH2” value [2] was “no specific activity was detected”.

CCCCCC(=O)CC[C@H]1[C@H](O)CC(=O)[C@@H]1C/C=C\CCCC(=O)O [13,14-dihydro-15-keto PGE2] was tested, and the “endogenous PPAR activity (reporter gene)” value [1] was “failed to increase PPAR activity” and the “specific activity as substrate of PGR3/ZADH2” value [2] was “no specific activity was detected”.

CCCCC[C@H](O)/C=C/[C@@H]1[C@@H](C/C=C\CCCC(=O)O)[C@@H](O)C[C@@H]1O [Compound 11b-PGF2α, 11b-PGF2α] was tested, and the “specific activity as substrate of PGR3/ZADH2” value [2] was “no specific activity was detected”.
